Assay results taken from patent US20130281497A1, “MACROCYCLIC COMPOUNDS AND METHODS OF TREATMENT” (University of Florida Research Foundation, Inc., priority 2010, published 2013).
Marks after values point to notes of the source that are not given here.

Legend:
calvaria bone = test: In vivo bone regeneration model (calvaria bone defects); design: species or system rabbits
Method: All rabbits are anesthetized with an intramuscular dose of 0.1 ml/kg Zoletil (Virbac, France). The head is shaved, and the cutaneous surface is disinfected with povidone iod solution prior to the operation. The calvaria bone is exposed through a skin incision of ˜4 cm in length. Four similar circular bicortical defects (3-mm diameter) are made in the parietal bone using a trephine on a slow-speed electric handpiece, applying 0.9% physiologic saline irrigation. Defects are filled with 10 mg of bone graft substitute, MBCP (Biomatlante, France) soaked with 50 μl of PBS or LA-1. Closure of periosteum and subcutaneous tissues is done with lactomer (Syneture), while the skin is relocated with nylon:polyamide (Syneture). Postoperative antibiotics are administered, e.g., Gentamycin. Rabbits are sacrificed at 4 weeks after surgery.

RAW264.7 cells = test: Osteoclastogenesis (RANKL-induced TRAP activity, multinucleated osteoclasts); type: cell-based
Method: FIG. 2 depicts activity of compound I (LA-1) and compound 8 (LA-3) on osteoclastogenesis. FIG. 2: (A) Effects of test compounds on the RANKL-induced TRAP activity. (B) Effects of test compounds on the RANKL-induced formation of TRAP-positive multinucleated osteoclasts. Effects of test compounds on osteoclast differentiation was evaluated in RAW264.7 cells. RAW264.7 cells were plated in 96-well plates at the density 1×10^3 and then serially diluted LA compounds were treated and incubated until multinucleated osteoclasts were observed under a microscope.
RAW264.7 cells were purchased from the ATCC and maintained in DMEM supplemented with 10% FBS, 100 U/ml of penicillin, and 100 μg/ml streptomycin with a change of medium every 3 days in humidified atmosphere of 5% CO2 in air at 37° C. For the osteoclast differentiation, RAW264.7 cells were suspended in α-minimal essential medium (α-MEM) supplemented with 10% FBS and 100 ng/ml RANKL (R&D Systems Inc., MN) and plated in a 96-well plate at 1×10^3 cells/well. The next day, cells were treated with largazole and then after an additional 3 days, multinucleated osteoclasts were observed.
Multinucleated osteoclasts were fixed with 10% formalin for 10 min and ethanol/acetone (1:1) for 1 min, and then stained by Leukocyte Acid Phosphatase Kit 387-A (Sigma, Mo.). […] Absorbance was measured at 410 nm, and TRAP activity was presented as % of control. […]

Runx2 = Runx2 luciferase reporter assay (p6xOSE2-luc); type: cell-based
Method: FIG. 1. depicts activity of compound I (LA-1) and compound 8 (LA-3) on osteoblast differentiation. FIG. 1: (A) The effects of test compounds (up to 500 nM) on osteoblast differentiation were evaluated by ALP staining. (B) The effect of test compounds (up to 50 nM) on osteoblast differentiation were evaluated by ALP staining. MS-275 was used as a positive control. The effects of test compounds on cell viability (C) and RUNX2 activity (D) were evaluated by CCK-8 assay and 6×OSE2-luciferase activity assay, respectively.
To measure Runx2 activity, p6×osteoblast-specific cis-acting element (OSE) 2-luc reporter vector was transiently transfected into C2C12 cells that were seeded in a 96-well plate at 5×10^3 cells/well as described previously (Kim et al., J. Cell Biochem. 2004, 9, 1239-1247). After 24 h, medium was replaced with DMEM containing 5% FBS with or without tanshinone IIA and/or BMP-2. After 24 h, the cells were lysed, and luciferase activity was measured using luciferase reporter assay system (Promega) and the Wallac EnVision microplate reader.

calvarial bones of mice = test: In vivo murine calvarial bone formation assay
Method: In vivo bone-forming activity of largazole was evaluated using lyophilized collagen sponges as described previously. […] Three weeks after drug implantation, the calvarias were harvested, fixed in 4% paraformaldehyde, decalcified in 12% EDTA, embedded in paraffin, and sectioned. Sections were deparaffinized through graded xylene washes, […] in a graded series of ethanol washes, and stained with hematoxylin and eosin (H&E).

C2C12 cells = test: mRNA induction of osteoblastogenesis markers and BMPs by quantitative real-time PCR; type: cell-based; conditions: for ALP mRNA level, fold change relative to the control / BMP-2 mRNA level, fold change relative to the control / BMP-4 mRNA level, fold change relative to the control / BMP-6 mRNA level, fold change relative to the control / BMP-7 mRNA level, fold change relative to the control / BMP-9 mRNA level, fold change relative to the control / OPN mRNA level, fold change relative to the control / RUNX2 mRNA level, fold change relative to the control: 6 days, C2C12 cells, mean ± SD
Method: Primers were designed using an on-line primer design program (Table 1). (S. Rozen, H. J. Skaletsky, Methods Mol. Biol. 2000, 132, 365-386.) Total RNA was isolated using TRIzol reagent (Life Technologies, MD) according to manufacturer's protocol. The concentration and purity of total RNA were calculated by measuring absorbance at 260 and 280 nm. First strand cDNA was synthesized using 2 μg of total RNA and 1 μM of oligo-dT18 primer and Omniscript Reverse Transcriptase (Qiagen, CA). SYBR green-based quantitative PCR was performed using the Stratagene Mx3000P Real-Time PCR system and Brilliant SYBR Green Master Mix (Stratagene, CA) with 3 μl of first-strand cDNA diluted 1:50 and 20 pmole of primers, according to the manufacturer's protocols. The PCR reaction consisted of three segments. The first segment (95° C. for 10 min) activated the polymerase; the second segment included 3-step cycling (40 cycles) at 94° C. for 40 sec (denaturation), 60° C. for 40 sec (annealing), and 72° C. for 1 min (extension); the third segment was performed to generate PCR product temperature dissociation curves (‘melting curves’) at 95° C. for 1 min, 55° C. for 30 sec, 95° C. for 30 sec. All reactions were run in triplicate, and data were analyzed by the 2^−ΔΔCT method (K. J. Livak, T. D. Schmittgen, Methods 2001, 25, 402-408.). GAPDH was used as the control gene. Significance was determined by Student's t-test with GAPDH-normalized 2^−ΔΔCT values. Differences were considered significant when P<0.05.

In the case of `CCCCCCCC(=O)SCC/C=C/[C@@H]1CC(=O)NCc2nc(cs2)C2=N[C@@](C)(CS2)C(=O)N[C@@H](C(C)C)C(=O)O1` [Largazole, largazole], the “anabolic bone forming activity in vivo” value (calvaria bone) is reported as “exhibited anabolic bone forming activity”, the inhibition of osteoclastogenesis (RAW264.7 cells) is reported as “potential to inhibit the osteoclastogenesis” and the “activity of RUNX2 (6×OSE2-luciferase activity assay)” value (Runx2; FIG. 1D) is reported as “strongly induced the activity of RUNX2”. For the same molecule, the “increase of Runx2 activity relative to the DMSO control” value (Runx2; largazole at 50 nM, p6×OSE2-luciferase reporter) was 29 fold, the “woven bone formation at lower (50 μM) versus higher (100 μM) concentration” value (calvarial bones of mice; 50 μM compared with 100 μM, collagen sponge implant) was “more significant than that at the higher concentration” and the “woven bone formation over the periosteum of the calvarial bones” value (calvarial bones of mice; collagen sponges soaked with largazole implanted, three weeks) was “induced woven bone formation”. The “ALP mRNA level, fold change relative to the control” value (C2C12 cells; largazole 1 nM) was 1.85 ± 0.06^a fold, the “BMP-2 mRNA level, fold change relative to the control” value (C2C12 cells; largazole 1 nM) was 2.15 ± 0.42^b fold and the “BMP-4 mRNA level, fold change relative to the control” value (C2C12 cells; largazole 1 nM) was 0.91 ± 0.22 fold. For the same molecule, the “BMP-6 mRNA level, fold change relative to the control” value (C2C12 cells; largazole 1 nM) was 1.69 ± 0.12^b fold, the “BMP-7 mRNA level, fold change relative to the control” value (C2C12 cells; largazole 1 nM) was 5.05 ± 0.31^c fold and the “BMP-9 mRNA level, fold change relative to the control” value (C2C12 cells; largazole 1 nM) was 5.18 ± 0.74^c fold. For the same molecule, the “OPN mRNA level, fold change relative to the control” value (C2C12 cells; largazole 1 nM) was 1.33 ± 0.19 fold, the “RUNX2 mRNA level, fold change relative to the control” value (C2C12 cells; largazole 1 nM) was 2.47 ± 0.39^b fold and the “ALP mRNA level, fold change relative to the control” value (C2C12 cells; largazole 50 nM) was 324.04 ± 1.59^c fold. For the same molecule, the “BMP-2 mRNA level, fold change relative to the control” value (C2C12 cells; largazole 50 nM) was 6.29 ± 0.98^c fold, the “BMP-4 mRNA level, fold change relative to the control” value (C2C12 cells; largazole 50 nM) was 2.38 ± 0.91^a fold and the “BMP-6 mRNA level, fold change relative to the control” value (C2C12 cells; largazole 50 nM) was 7.15 ± 1.33^b fold. The “BMP-7 mRNA level, fold change relative to the control” value (C2C12 cells; largazole 50 nM) was 17.12 ± 2.59^c fold, the “BMP-9 mRNA level, fold change relative to the control” value (C2C12 cells; largazole 50 nM) was 12.14 ± 3.17^b fold and the “OPN mRNA level, fold change relative to the control” value (C2C12 cells; largazole 50 nM) was 2.28 ± 0.12^b fold. The “RUNX2 mRNA level, fold change relative to the control” value (C2C12 cells; largazole 50 nM) was 3.66 ± 1.19^a fold, the “ALP mRNA level, fold change relative to the control” value (C2C12 cells; largazole 100 nM) was 263.33 ± 11.61^b fold and the “BMP-2 mRNA level, fold change relative to the control” value (C2C12 cells; largazole 100 nM) was 6.34 ± 1.16^b fold. For the same molecule, the “BMP-4 mRNA level, fold change relative to the control” value (C2C12 cells; largazole 100 nM) was 3.48 ± 1.63 fold, the “BMP-6 mRNA level, fold change relative to the control” value (C2C12 cells; largazole 100 nM) was 8.37 ± 0.88^c fold and the “BMP-7 mRNA level, fold change relative to the control” value (C2C12 cells; largazole 100 nM) was 10.72 ± 1.90^c fold. The “BMP-9 mRNA level, fold change relative to the control” value (C2C12 cells; largazole 100 nM) was 10.18 ± 2.22^b fold, the “OPN mRNA level, fold change relative to the control” value (C2C12 cells; largazole 100 nM) was 0.83 ± 0.04^a fold and the “RUNX2 mRNA level, fold change relative to the control” value (C2C12 cells; largazole 100 nM) was 2.06 ± 0.00^c fold. The “increase of Runx2 mRNA level relative to the DMSO control” value (C2C12 cells; largazole at 50 nM, real-time PCR) was 3 fold and the “mRNA expression levels of BMPs (BMP-2, 4, 6, 7, and 9)” value (C2C12 cells; real-time PCR) was “significantly induced”.
